Test system: TDP1
Experiment: not given
Conditions: Figure 1, berberines; cited from earlier work

Row | SMILES | IC50
1 | CCCS(=O)(=O)Oc1c(OC)cc(Br)c2c1CN1CCc3cc4c(cc3C1C2)OCO4 (stereo not drawn) [Compound 2] | 2900 nM

Same assay, conditions: Figure 1, coumarins; cited from earlier work

Row | SMILES | IC50
2 | COc1ccc(-c2cc(=O)oc3cc(OCCC4=CCC5CC4C5(C)C)ccc23)cc1 (stereo not drawn) [Compound 3] | 910 nM

Same assay, conditions: Figure 1, isoquinolines; cited from earlier work

Row | SMILES | IC50
3 | COc1cccc2c1-c1c(c3ccc([N+](=O)[O-])cc3c(=O)n1CCCN)C2=O [Compound 5] | 5500 nM

Same assay, conditions: Figure 1, resin acid derivatives; cited from earlier work

Row | SMILES | IC50
4 | CC(C)c1ccc2c(c1)CC[C@H]1[C@](C)(CNC(=O)CC34CC5CC(CC(C5)C3)C4)CCC[C@]21C [Compound 7] | 190 nM

Same assay, conditions: Figure 1, steroids; cited from earlier work

Row | SMILES | IC50
5 | CO[C@@H]1CC[C@]2(C)C3C[C@H](OC)[C@@]4(C)C(CC[C@@H]4[C@H](C)CCC(=O)Nc4ccc(Br)cc4)[C@@H]3CC[C@@H]2C1 (stereo partly drawn) [Compound 4] | 270 nM

Same assay, conditions: Figure 1, terpenoadamantanes; cited from earlier work

Row | SMILES | IC50
6 | CC(C)=CCC/C(C)=C/CSc1n[nH]c(C23CC4CC(CC(C4)C2)C3)n1 [Compound 8] | 5200 nM

Same assay, conditions: Figure 1, thiazolidines; cited from earlier work

Row | SMILES | IC50
7 | O=C1NC(=S)/C(=C/c2ccc(O)c(O)c2O)S1 [Compound 6] | 870 nM

Target: T1, Human recombinant TDP1 (Homo sapiens, UniProt Q9NUW8)
T1 construct: made in house
Experiment: Real-time oligonucleotide biosensor assay of TDP1 activity
Type: biochemical
Conditions: 1.5 nM TDP1, 50 nM biosensor, 26 °C, at least three experiments
Method: The inhibiting activity of the compounds against TDP1 was investigated using a real-time oligonucleotide biosensor assay.
The biosensor (5′-[FAM] AAC GTC AGGGTC TTC C [BHQ]-3′) was synthesized in the Laboratory of Nucleic Acid Chemistry at the Institute of Chemical Biology and Fundamental Medicine (Novosibirsk, Russia) and was used for TDP1 enzyme activity real-time fluorescence detection. The reaction mixture (200 µL) contained a TDP1 reaction buffer (50 mM Tris-HCl, pH 8.0, 50 mM NaCl, and 7 mM β-mercaptoethanol), 50 nM oligonucleotide, varied concentrations of the tested compounds, and purified TDP1 in a final concentration of 1.5 nM. The recombinant TDP1 was purified to homogeneity by chromatography on Ni-chelating resin and phosphocellulose P11, as described, using plasmid pET 16B-TDP1, kindly provided by Dr. K.W. Caldecott (University of Sussex, United Kingdom).
The reaction mixtures were incubated at a constant temperature of 26 °C in a POLARstar OPTIMA fluorimeter (BMG LABTECH, GmbH, Ortenberg, Germany). Fluorescence intensity was measured (Ex485/Em520 nm) every 1 min for 10 min. The average values of the half maximal inhibitory concentration (IC50) were determined using a six-point concentration response curve and calculated using MARS Data Analysis 2.0 (BMG LABTECH). The 50% inhibitory concentration (IC50) was defined as the concentration of the compound that inhibited 50% of the enzyme activity, when compared to the untreated controls. At least three independent experiments were carried out to obtain the IC50 values.

T1 sequence (Q9NUW8 whole entry): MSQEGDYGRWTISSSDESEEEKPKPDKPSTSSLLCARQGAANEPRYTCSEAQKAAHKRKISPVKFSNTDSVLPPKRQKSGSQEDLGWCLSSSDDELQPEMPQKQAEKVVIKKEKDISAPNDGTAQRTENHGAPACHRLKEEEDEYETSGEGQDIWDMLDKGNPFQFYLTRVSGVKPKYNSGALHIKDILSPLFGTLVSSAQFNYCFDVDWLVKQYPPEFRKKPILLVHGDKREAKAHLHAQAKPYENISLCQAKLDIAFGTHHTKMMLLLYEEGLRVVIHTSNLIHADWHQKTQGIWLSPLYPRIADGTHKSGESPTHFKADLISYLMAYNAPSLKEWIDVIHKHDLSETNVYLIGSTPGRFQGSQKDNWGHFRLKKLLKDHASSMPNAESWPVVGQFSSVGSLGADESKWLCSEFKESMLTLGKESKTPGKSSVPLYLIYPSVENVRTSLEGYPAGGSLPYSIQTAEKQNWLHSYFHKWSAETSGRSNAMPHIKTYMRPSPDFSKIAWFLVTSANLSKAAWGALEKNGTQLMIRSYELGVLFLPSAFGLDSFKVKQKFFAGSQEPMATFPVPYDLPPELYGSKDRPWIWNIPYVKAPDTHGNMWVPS

Row | SMILES | TDP1 inhibitory activity IC50
8 | CC1(C)[C@H]2CC=C(CCN3C(=O)S/C(=C\c4cc(Br)cs4)C3=O)[C@@H]1C2 [Compound 21d, (Z)-5-((4-bromothiophen-2-yl)methylene)-3-(2-((1R,5S)-6,6-dimethylbicyclo[3.1.1]hept-2-en-2-yl)ethyl)thiazolidine-2,4-dione] | submicromolar
9 | CC(C)=CCC/C(C)=C/CN1C(=O)S/C(=C\c2ccc(Br)s2)C1=O [Compound 20b, (Z)-5-((5-bromothiophen-2-yl)methylene)-3-((E)-3,7-dimethylocta-2,6-dienyl)thiazolidine-2,4-dione] | did not show affinity for the enzyme
10 | CC(C)=CCC/C(C)=C/CN1C(=O)S/C(=C\c2cc(Br)cs2)C1=O [Compound 20d, (Z)-5-((4-bromothiophen-2-yl)methylene)-3-((E)-3,7-dimethylocta-2,6-dienyl)thiazolidine-2,4-dione] | submicromolar

Same assay, conditions: 1.5 nM TDP1, 50 nM biosensor, 26 °C, at least three experiments; read-out: TDP1 inhibitory activity IC50

Row | SMILES | IC50
11 | CC1(C)[C@H]2CC=C(CCN3C(=O)S/C(=C\c4cc(Br)cs4)C3=O)[C@@H]1C2 [Compound 21d, (Z)-5-((4-bromothiophen-2-yl)methylene)-3-(2-((1R,5S)-6,6-dimethylbicyclo[3.1.1]hept-2-en-2-yl)ethyl)thiazolidine-2,4-dione] | 0.55 ± 0.07 µM
12 | CC(C)=CCC/C(C)=C/CN1C(=O)S/C(=C\c2ccc(Br)s2)C1=O [Compound 20b, (Z)-5-((5-bromothiophen-2-yl)methylene)-3-((E)-3,7-dimethylocta-2,6-dienyl)thiazolidine-2,4-dione] | > 100 µM
13 | CC1(C)[C@H]2CC=C(CCN3C(=O)S/C(=C\c4cccs4)C3=O)[C@@H]1C2 [Compound 21c, (Z)-3-(2-((1R,5S)-6,6-dimethylbicyclo[3.1.1]hept-2-en-2-yl)ethyl)-5-(thiophen-2-ylmethylene)thiazolidine-2,4-dione] | > 100 µM
14 | O=C1S/C(=C\c2ccc(Br)s2)C(=O)N1Cc1ccccc1 [Compound 19b, (Z)-3-Benzyl-5-((5-bromothiophen-2-yl)methylene)thiazolidine-2,4-dione] | 1.9 ± 0.3 µM
15 | CC(C)=CCC/C(C)=C/CN1C(=O)S/C(=C\c2cc(Br)cs2)C1=O [Compound 20d, (Z)-5-((4-bromothiophen-2-yl)methylene)-3-((E)-3,7-dimethylocta-2,6-dienyl)thiazolidine-2,4-dione] | 0.65 ± 0.07 µM
16 | CC(C)=CCC/C(C)=C/CN1C(=O)S/C(=C\c2ccco2)C1=O [Compound 20a, (Z)-3-((E)-3,7-dimethylocta-2,6-dienyl)-5-(furan-2-ylmethylene)thiazolidine-2,4-dione] | 3.4 ± 0.1 µM
17 | O=C1NC(=O)/C(=C/c2ccc(Br)cc2)S1 [Compound 18f, (Z)-5-(4-bromobenzylidene)thiazolidine-2,4-dione] | > 100 µM
18 | O=C1NC(=O)/C(=C/c2ccco2)S1 [Compound 18a, (Z)-5-(furan-2-ylmethylene)thiazolidine-2,4-dione] | > 100 µM
19 | CC1=CCC(CC=C2SC(=O)N(CCC3=CCC4CC3C4(C)C)C2=O)C1(C)C [Compound 21g, (Z)-3-(2-(1R,5S)-6,6-dimethylbicyclo[3.1.1]hept-2-en-2-yl)ethyl)-5-(2-((S)-2,2,3-trimethylcyclopent-3-enyl)ethylidene)thiazolidine-2,4-dione] | 2.4 ± 0.1 µM
20 | CC1=CC[C@@H](C/C=C2\SC(=O)NC2=O)C1(C)C [Compound 18g, (S,Z)-5-(2-(2,2,3-Trimethylcyclopent-3-enyl)ethylene)thiazolidine-2,4-dione] | > 100 µM
21 | O=C1S/C(=C\c2ccc(Br)cc2)C(=O)N1Cc1ccccc1 [Compound 19f, (Z)3-benzyl-5-(4-bromobenzylidene)thiazolidine-2,4-dione] | 1.6 ± 0.3 µM
22 | O=C1S/C(=C\c2cc(Br)cs2)C(=O)N1Cc1ccccc1 [Compound 19d, (Z)-3-Benzyl-5-((4-bromothiophen-2-yl)methylene)thiazolidine-2,4-dione] | > 100 µM
23 | CC1(C)[C@H]2CC=C(CCN3C(=O)S/C(=C\c4ccc(Br)cc4)C3=O)[C@@H]1C2 [Compound 21f, (Z)-5-(4-bromobenzylidene)-3-(2-((1R,5S)-6,6-dimethylbicyclo[3.1.1]hept-2-en-2-yl)ethyl)thiazolidine-2,4-dione] | > 100 µM
24 | Cc1ccc(/C=C2\SC(=O)NC2=O)s1 [Compound 18e, (Z)-5-((5-methylthiophen-2-yl)methylene)thiazolidine-2,4-dione] | > 100 µM
25 | O=C1S/C(=C\c2ccco2)C(=O)N1Cc1ccccc1 [Compound 19a, (Z)-3-Benzyl-5-(furan-2-ylmethylene)thiazolidine-2,4-dione] | > 100 µM
26 | CC(C)=CCC/C(C)=C/CN1C(=O)S/C(=C\c2ccc(Br)cc2)C1=O [Compound 20f, (Z)-5-(4-bromobenzylidene)-3-((E)-3,7-dimethylocta-2,6-dienyl)thiazolidine-2,4-dione] | > 100 µM
27 | CC(C)=CCC/C(C)=C/CN1C(=O)S/C(=C\C[C@@H]2CC=C(C)C2(C)C)C1=O [Compound 20g] | 4.1 ± 0.1 µM
28 | CC(C)=CCC/C(C)=C/CN1C(=O)S/C(=C\c2cccs2)C1=O [Compound 20c, (Z)-3-((E)-3,7-dimethylocta-2,6-dienyl)-5-(thiophen-2-ylmethylene)thiazolidine-2,4-dione] | > 100 µM
29 | CC(C)=CCC/C(C)=C/CN1C(=O)S/C(=C\c2ccc(C)s2)C1=O [Compound 20e, (Z)-3-((E)-3,7-dimethylocta-2,6-dienyl)-5-((5-methylthiophen-2-yl)methylene)-thiazolidine-2,4-dione] | 2.9 ± 0.1 µM
30 | CC1=CC[C@@H](C/C=C2\SC(=O)N(Cc3ccccc3)C2=O)C1(C)C [Compound 19g, (S,Z)-3-Benzyl-5-(2-(2,2,3-trimethylcyclopent-3-enyl)ethylidene)thiazolidine-2,4-dione] | 2.4 ± 1.1 µM
31 | O=C1NC(=O)/C(=C/c2ccc(Br)s2)S1 [Compound 18b, (Z)-5-((5-bromothiophen-2-yl)methylene)thiazolidine-2,4-dione] | 1.1 ± 0.2 µM
32 | O=C1NC(=O)/C(=C/c2cc(Br)cs2)S1 [Compound 18d, (Z)-5-((4-bromothiophen-2-yl)methylene)thiazolidine-2,4-dione] | > 100 µM
33 | Cc1ccc(/C=C2\SC(=O)N(CCC3=CC[C@H]4C[C@@H]3C4(C)C)C2=O)s1 [Compound 21e, (Z)-3-(2-((1R,5S)-6,6-dimethylbicyclo[3.1.1]hept-2-en-2-yl)ethyl)-5-((5-methylthiophen-2-yl)methylene)thiazolidine-2,4-dione] | 2.3 ± 0.1 µM
34 | Cc1ccc(/C=C2\SC(=O)N(Cc3ccccc3)C2=O)s1 [Compound 19e, (Z)-3-Benzyl-5-((5-methylthiophen-2-yl)methylene)thiazolidine-2,4-dione] | > 100 µM
35 | O=C1NC(=O)/C(=C/c2cccs2)S1 [Compound 18c, (Z)-5-(thiophen-2-ylmethylene)thiazolidine-2,4-dione] | > 100 µM
36 | O=C1S/C(=C\c2cccs2)C(=O)N1Cc1ccccc1 [Compound 19c, (Z)-3-Benzyl-5-(thiophen-2-ylmethylene)thiazolidine-2,4-dione] | > 100 µM

Source: paper PMC9964680, “Novel TDP1 Inhibitors: Disubstituted Thiazolidine-2,4-Diones Containing Monoterpene Moieties” (International Journal of Molecular Sciences, 2023)
